Data as given in patent publication US11753407B2, “Compounds for treating spinal muscular atrophy” (PTC Therapeutics, Inc., priority 2012, dated 2023).

What was measured:
[1] = test system: SMN2 minigene mRNA (SMN2-A minigene) in HEK293H cells; experiment: SMN2 minigene mRNA splicing RT-qPCR assay in cultured cells; format: cell-based, human; conditions: Homo sapiens, HEK293-H; concentration increasing full length SMN2 mRNA 1.5-fold relative to vehicle-treated cells; HEK293H cells with SMN2-A minigene, 24 hours, 7-point concentration data; read-out: EC1.5x for production of full length SMN2 mRNA
Outline: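 Stable SMN2-A minigene HEK293H; cpd 7-pt 3.16-fold series, 200× in DMSO, 24 h, 37 °C, n=2. Lysates → multiplex RT-qPCR (minigene FL + GAPDH), efficiency-corrected ΔΔCt vs vehicle. EC1.5× = 1.5-fold FL mRNA gain.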

[2] = test system: Smn protein in SMA patient fibroblast cells (GM03813); experiment: Smn protein assay in cultured cells (SMN HTRF); format: cell-based, human; conditions: SMA patient fibroblast cells, 48 hours; for EC1.5x for Smn protein expression: 7-point concentration curve, SMN HTRF, concentration producing 1.5 times Smn protein vs DMSO vehicle control; for maximum fold (Fold) increase of Smn protein: 7-point concentration data, fold relative to vehicle control
Outline: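 Fibroblasts, SMA patient; 5,000 cells/well; 7-pt curve, 3.16-fold serial dilution; 48 h, 37 °C, 5% CO2; RIPA lysis 1 h RT; anti-SMN d2 + kryptate overnight RT; HTRF 665/620 nm; fold vs DMSO; EC1.5×, max fold.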

Compound	EC (1.5-fold increase) [1] [µM]	EC1.5x for Smn protein expression [2]	maximum fold (Fold) increase of Smn protein [2]	melting point [°C]
Cc1cc2cc(-c3cc(=O)n4cc(N5CCN(CCO)CC5)ccc4n3)oc2c(C)n1 [Compound 529, 2-(5,7-dimethylfuro[2,3-c]pyridin-2-yl)-7-[4-(2-hydroxyethyl)piperazin-1-yl]-4H-pyrido[1,2-a]pyrimidin-4-one]	< 0.1	*** (an EC1.5× between >0.3 μM and ≤1 μM is indicated by three stars (***))	***** (a fold increase >1.65 is indicated by five stars (*****))	256 to 258
Cc1cn2nc(-c3cc(=O)n4cc(C5CCN(CCO)CC5)ccc4n3)cc2c(C)n1 [Compound 530, 2-(4,6-dimethylpyrazolo[1,5-a]pyrazin-2-yl)-7-[1-(2-hydroxyethyl)piperidin-4-yl]-4H-pyrido[1,2-a]pyrimidin-4-one]	< 0.1	**** (an EC1.5x≤0.3 μM is indicated by four stars (****))	***** (a fold increase >1.65 is indicated by five stars (*****))	228 to 230
Cc1cn2nc(-c3cc(=O)n4cc(N5CCN(CCO)CC5)ccc4n3)cc2c(C)n1 [Compound 531, 2-(4,6-dimethylpyrazolo[1,5-a]pyrazin-2-yl)-7-[4-(2-hydroxyethyl)piperazin-1-yl]-4H-pyrido[1,2-a]pyrimidin-4-one]	0.1 to 0.3	*** (an EC1.5× between >0.3 μM and ≤1 μM is indicated by three stars (***))	***** (a fold increase >1.65 is indicated by five stars (*****))	246 to 248
Cc1cn2nc(-c3cc(=O)n4cc(N5CCN(CCO)[C@H](C)C5)ccc4n3)cc2c(C)n1 [Compound 532, 2-(4,6-dimethylpyrazolo[1,5-a]pyrazin-2-yl)-7-[(3R)-4-(2-hydroxyethyl)-3-methylpiperazin-1-yl]-4H-pyrido[1,2-a]pyrimidin-4-one]	< 0.1	**** (an EC1.5x≤0.3 μM is indicated by four stars (****))	***** (a fold increase >1.65 is indicated by five stars (*****))	238 to 240
COCCN1CCN(c2ccc3nc(-c4cc(Cl)c5nc(C)cn5c4)cc(=O)n3c2)C[C@@H]1C [Compound 533, 2-(8-chloro-2-methylimidazo[1,2-a]pyridin-6-yl)-7-[(3S)-4-(2-methoxyethyl)-3-methylpiperazin-1-yl]-4H-pyrido[1,2-a]pyrimidin-4-one]	< 0.1	*** (an EC1.5× between >0.3 μM and ≤1 μM is indicated by three stars (***))	***** (a fold increase >1.65 is indicated by five stars (*****))	179 to 183
Cc1cn2cc(-c3cc(=O)n4cc(N5CCN(CCOCCO)[C@@H](C)C5)ccc4n3)cc(Cl)c2n1 [Compound 534, 2-(8-chloro-2-methylimidazo[1,2-a]pyridin-6-yl)-7-{(3S)-4-[2-(2-hydroxyethoxy)ethyl]-3-methylpiperazin-1-yl}-4H-pyrido[1,2-a]pyrimidin-4-one]	< 0.1	**** (an EC1.5x≤0.3 μM is indicated by four stars (****))	***** (a fold increase >1.65 is indicated by five stars (*****))	201 to 205
Cc1cn2cc(-c3cc(=O)n4cc(N5CCN(C6CC6)[C@@H](C)C5)ccc4n3)cc(Cl)c2n1 [Compound 535, 2-(8-chloro-2-methylimidazo[1,2-a]pyridin-6-yl)-7-[(3S)-4-cyclopropyl-3-methylpiperazin-1-yl]-4H-pyrido[1,2-a]pyrimidin-4-one]	< 0.1	*** (an EC1.5× between >0.3 μM and ≤1 μM is indicated by three stars (***))	***** (a fold increase >1.65 is indicated by five stars (*****))	253 to 257
